Data set [1] deals with P. aeruginosa PA01. Nature of the data set: Biofilm formation under static conditions, CLSM with Live/Dead staining. Conditions: for density of attached cells (biofilm) / mortality of the bacterial cells: 50 μM; for density of attached cells (biofilm): 18 h static incubation at 37° C.; for mortality of the bacterial cells: compared with DMSO control. It is filed as cell-based, Pseudomonas aeruginosa. Here is the method: (§1) FIGS. 1A-B show prevention of biofilm formation. Confocal laser scanning micrographs (CLSM) of P. aeruginosa PA01 (A) and A. baumannii (B) formed in glass-bottomed 96 well plates after 18 h of static incubation at 37° C. Cultures were grown in the presence of either 50 μM DIV or NN, or an equivalent amount of DMSO for control. Biofilms were stained using the Live/Dead bacterial viability kit. Live, dead and total bio-volumes (μm^3/μm^2) were calculated based on image analysis and data from the IMARIS software. Bars indicate standard deviations for triplicate sets of experiments.
(§2) FIGS. 5A-D show biofilm attenuation of the pathogens P. stuartii (A), S. marcescens (B), A. baumannii (C) and P. aeruginosa PA01 (D). Cultures were grown in the presence of either 50 μM DIM or an equivalent amount of DMSO for control. Biofilms were stained with the LIVE/DEAD bacterial viability kit. For each species and per treatment, live, dead and total bio-volumes (μm^3/μm^2) were calculated based on image analysis and data from the IMARIS software, and % biofilm inhibition was calculated based on live bio-volumes. The results are the average values of analysis of at least three micrographs.
(§3) Bioflims of P. aeruginosa and A. baumanii that were developed on glass slides were determined using confocal scanning laser microscopy (CSLM) (FIG. 1). Accordingly, the density of the biofilms prior to and following treatment by NN and DIV was measured.
(§4) The current study investigated the influence of DIM on the biofilm formation process and on the destruction of existing biofilms of several pathogenic gram-negative bacterial strains.

The test system of data set [2] is A. baumannii. The data set can be described thus: Biofilm formation in dynamic flow-cell system. It is filed as cell-based, Acinetobacter baumannii. The text has this:
(§5) In addition, we tested the anti-biofilm properties of the well-studied anti-cancer compound 3,3′-Diindolylmethane (DIM), a metabolite found in cruciferous vegetables. Inhibition of biofilm establishment by DIM was investigated with different clinical pathogens under static conditions. Biofilm formation by A. baumannii and P. aeruginosa was further tested in a dynamic flow-cell system, in which biofilm inhibition levels of 86% and 76% were obtained, respectively. […] Further examination of the hypothesized synergistic effect obtained by combining conventional antibiotics with the DIM compound may offer a promising strategy for the eradication of biofilm complexes.

Data set [3] has as its system P. aeruginosa. Nature of the data set: Biofilm formation in dynamic flow-cell system. Type of data set: cell-based, Pseudomonas aeruginosa.
Description: as §5

In data set [4] the test system is P. stuartii. The data set can be described thus: Biofilm formation under static conditions, CLSM. Type of data set: cell-based, Providencia stuartii. Conditions: 50 μM DIM. Here is the method:
as §2, §4

In data set [5] the test system is Erwinia carotovora. Nature of the data set: Biofilm formation by plant-associated bacteria, static 96 well plates, CLSM. As to conditions: 50 μM, 18 h static. It is filed as cell-based. Here is the method:
Biofilm formed in glass-bottomed 96 well plates after 18 h of static incubation at 37° C. was investigated by confocal laser scanning micrographs (CLSM). Cultures were grown in the presence of either 50 μM DIM or NN, or an equivalent amount of DMSO for control. Biofilms were stained using the Live/Dead bacterial viability kit. Live, dead and total bio-volumes (μm^3/μm^2) were calculated based on image analysis and data from the IMARIS software.
Erwinia carotovora was cultured in glass-bottomed 96 well plates for 18 h in static conditions. The growth medium was provided with either 50 μM DIM or NN and the resulted biofilms was investigated using CSLM.

For data set [6], the system named is A. baumannii. The data set can be described thus: Biofilm formation under static conditions, CLSM with Live/Dead staining. Type of data set: cell-based, Acinetobacter baumannii. As to conditions: for density of attached cells (biofilm) / mortality of the bacterial cells: 50 μM; for density of attached cells (biofilm): 18 h static incubation at 37° C.; for mortality of the bacterial cells: compared with DMSO control. Here is the method:
as §1, §2, §3, §4

Data set [7] concerns P. aeruginosa PA01 mature biofilm. The data set can be described thus: Destruction of mature biofilm in flow cell, CLSM. It is filed as cell-based, Pseudomonas aeruginosa. Conditions: 72 h biofilm, then 48 h treatment, 50 μM compound, 20 μg/ml tobramycin. The procedure:
FIG. 2 depicts destruction of P. aeruginosa PA01 mature biofilm; biofilm formed in a flow cell after 72 h of incubation at 37° C. and 48 h more in the presence of 50 μM NN, 20 μg/ml Tobramycin, and 50 μM NN with 20 μg/ml tobramycin. Biofilms were stained with Live/Dead bacterial viability kit. Quantification of BioVolume; Live, dead and total bio-volumes (μm^3/μm^2) calculated based on image analysis and data from the IMARIS software. The images were acquired from three different areas in each treatment.
FIG. 6. depicts destruction of mature, differentiated biofilm of P. aeruginosa PA01. Statistical analysis of CSLM images of biofilm formed in a flow system after 120 h, and with supplementation of 50 μM DIM, 20 μg/ml Tobramycin and a combined treatment of 50 μM DIM with 20 μg/ml Tobramycin. Biofilms were stained with the LIVE/DEAD bacterial viability kit. Quantification of bio-volume: live, dead and total bio-volumes (μm^3/μm^2) were calculated based on image analysis and data from the IMARIS software.
Dynamic growth conditions in flow cell systems are considered to be representative of the real conditions in humeral tissues, where the pathogen thrives in enriched settings. […] Once the efficiency of the new compounds was tested, we proceeded to assess the efficacy of adding antibiotic treatment to the novel compounds to eradicate biofilm (FIG. 2). […] On the other hand, when treated by both the antibiotic and the NN, the biofilm was eradicated and the bacterial cells died.
To investigate the combined destructive effect of the biofilm inhibitor compound and an antibiotic, P. aeruginosa PA01 was cultured for 72 h in the continuous flow system until a mature biofilm had been established Immediately after its establishment, the biofilm was challenged with DIM and/or the antibiotic tobramycin, the known activity of which is protein synthesis inhibition (FIG. 6).

For data set [8], the system named is P. larvae. As to conditions: agar diffusion method (Brenda et al., 2010); cited from earlier work. (In agar diffusion tests the substance spreads into inoculated agar from a disc or well.)
The subject of data set [9] is P. aeruginosa PA01. The data set can be described thus: Virulence factor production, spectrophotometry of cell-free culture. It is filed as cell-based, Pseudomonas aeruginosa. Conditions: for virulence factors production: P. aeruginosa PA01 grown with 50 μM compound. Here is the method:
(§6) FIGS. 3A-B show effect on, P. aeruginosa PA01 pathogenesis. (A) Inhibition of virulence factors production in P. aeruginosa PA01, which were grown in the presence of 50 μM NN or DIV. Tetracycline is used as positive control. Results are based on OD measurements distinctive to each factor and normalized to bacterial growth at OD600 nm. Error bars represent SD of three independent repetitions. (B) C. elegans killing assay assed by SYTOX Orange stain within 24 h.
Results are based on OD measurements specific to each factor and normalized to the growth OD of 600 nm. Bars indicate standard deviations for triplicate sets of experiments.
(§7) Driven by an arsenal of virulence factors added to the biofilm mode of growth, P. aeruginosa PA01 pathogenesis depends on the type of the infection. Therefore, both compounds were tested for their abilities to suppress prominent virulence determinants (FIG. 3A). […] Measuring nematode survivorship following exposure to P. aeruginosa in the absence and presence of modulating compounds, therefore, provides a good model for assessing the effectiveness of the novel compounds on the pathogenesis of the bacteria.
The basis of P. aeruginosa pathogenicity is an arsenal of virulence determinants designed for survival and proliferation in the host that enable bacterial invasion and the subsequent establishment of infection. The success of this microorganism is largely due to its ability to form intractable biofilms and to produce myriad virulence factors controlled by a quorum-sensing (QS) system.

For data set [10], the system named is S. marcescens. The data set can be described thus: Biofilm formation under static conditions, CLSM. It is filed as cell-based, Serratia marcescens. Conditions: 50 μM DIM. Here is the method: as §2, §4
The test system of data set [11] is A549 Human Lung Cell line infected by P. aeruginosa. Nature of the data set: Cytotoxicity and apoptosis of A549 cells infected with pre-treated bacteria, calcein staining. As to conditions: bacteria pre-treated with compound, 24 h. Type of data set: cell-based. Here is the method: FIGS. 4A-B show reduced adhesion and virulence of P. aeruginosa PA01 in human A549 lung cells model. (A) Cytotoxicity effect and apoptosis of A549 cells by P. aeruginosa PA01 pre-treated with DIV or NN during 24 h. The infection progress was monitored by calcein staining using Operetta screening system. All the experiments were performed in triplicates. (B) Adhesion of P. aeruginosa PA01 (5×10^7 CFU/ml) pre-treated with DIV or NN to A549 cells for 1 hr of incubation. Excess bacteria were removed and the released cells were plated followed CFU counts determination.
In order to test the possible effects of these compounds on higher organisms, we tested NN and DIV on A549 Human Lung Cell line infected by P. aeruginosa. Additional tests were carried out for NN and DIV to assess the effect of this compound to enhance the survival of A549 cells during infection with P. aeruginosa PA01. […] Due the fact that adherence to a humeral cell is considered a crucial step in the bacterial infection initiation process, P. aeruginosa PA01 pre-treated with DIV or NN was tested for its adherence potency to lung epithelial cells A549.

Data set [12] concerns Caenorhabditis elegans infected by Pseudomonas aeruginosa. The data set can be described thus: C. elegans killing assay. It is filed as in vivo. As to conditions: SYTOX Orange stain within 24 h. The procedure: as §6, §7

Each structure is given as a SMILES string. “Also recorded” adds a separate entry of the source.

As for `c1ccc2c(Cc3c[nH]c4ccccc34)c[nH]c2c1` [DIM, di(1H-indol-3-yl)methane], the “biofilm formation compared to control” value in [1] (50 μM DIM, static) is given as “substantially reduced biofilms”. The biofilm inhibition levels in [2] is 86%. Moreover, the biofilm inhibition levels in data set [3] was 76%. Further, the “biofilm formation compared to control” value in data set [4] is listed as “substantially reduced biofilms”. Also, in data set [5], the “biofilm formation / density of attached cells” value is reported as “prevents biofilm formation”. Besides, the “biofilm formation compared to control” value in [6] (50 μM DIM, static) is reported as “substantially reduced biofilms”. In addition, the “destruction of mature biofilm” value in data set [7] is on record as “destruction of existing, stable biofilm”. Besides, in data set [8], the “antibiotic activity against P. larvae” value was “antibiotic activity”. Moreover, in data set [9] (50 μM DIM), the “reduction in chitinase production” value is on record as 35%, the reduction in elastase was 19%, the reduction in protease was 10% and the reduction in pyocyanin stood at 21%. The reduction in pyoverdine in data set [9] (50 μM DIM) was determined as 20%. In addition, the “biofilm formation compared to control” value in data set [10] was “substantially reduced biofilms”.

For the molecule `c1ccc2c(c1)CC(c1cc3ccccc3[nH]1)N2` (centres unmarked) [DIV, 2-(indolin-2-yl)-1H-indole], the “density of attached cells (biofilm)” value is “reduction of density of attached cells” in data set [1] and “smaller effects” in data set [6]. Besides, the “mortality of the bacterial cells” value in [1] and in [6] was “negligible mortality” in each case. Moreover, the “cytotoxicity effect and apoptosis of A549 cells by pre-treated P. aeruginosa PA01” value in data set [11] is “suspended the cytotoxicity effect and apoptosis killing”. For the same molecule, the “survivorship of C. elegans following exposure to P. aeruginosa” value in data set [12] is listed as “pathogenesis of P. aeruginosa is reduced”. Also, the virulence factors production entry in data set [9] was “reduced significantly”.

As for `c1ccc2c(c1)ccn2-n1ccc2ccccc21` [NN, 1,1′-Biindole], in data set [1], the “density of attached cells (biofilm)” value is on record as “reduction of density of attached cells; also recorded: most effective” and the “mortality of the bacterial cells” value is given as “negligible mortality”. The “cytotoxicity effect and apoptosis of A549 cells by pre-treated P. aeruginosa PA01” value in data set [11] was “suspended the cytotoxicity effect and apoptosis killing”. In data set [12], the “survivorship of C. elegans following exposure to P. aeruginosa” value is recorded as “significantly increased survivorship”. Besides, the “biofilm formation / density of attached cells” value in data set [5] is “prevents biofilm formation”. In [6], the “density of attached cells (biofilm)” value is recorded as “smaller effects” and the “mortality of the bacterial cells” value is “negligible mortality”. The “destruction of mature biofilm” value in [7] is on record as “reduced but not eradicated”. For the same molecule, the virulence factors production entry in [9] was “reduced significantly”.

Turning to `NC[C@H]1O[C@H](O[C@H]2[C@H](O)[C@@H](O[C@H]3O[C@H](CO)[C@@H](O)[C@H](N)[C@H]3O)[C@H](N)C[C@@H]2N)[C@H](N)C[C@@H]1O` [tobramycin, Tobramycin, reference compound], the “destruction of mature biofilm” value in data set [7] was “dense biofilm similar to that of the control”; in [7] (listed as antibiotic) it was “little loss of biofilm”.

These data come from patent US11096925B2, “Indole derivatives for biofilm disruption and inhibition” (LIFE MATTERS LTD., priority 2015, dated 2021).
